Results as given in patent publication US20240246932A1 (Merck Sharp & Dohme LLC, priority 2021, published 2024).

Molecular target: human NaV 1.8 channels stably expressed in HEK 293 cells (Homo sapiens (Human), UniProt Q9Y5Y9)
Assay: Nav1.8 Qube automated patch-clamp assay
Type: cell-based
Details: human NaV1.8 in HEK 293 cells, whole-cell voltage clamp, room temperature; read-out: IC50 values (nM) for Examples in the Nav1.8 Qube Assay
Procedure: Compounds were tested on human NaV 1.8 and NaV1.5 channels stably expressed in human embryo kidney (HEK) 293 cells. Sodium current measurements on Qube® were conducted as follows: automated 384-well patch-clamp assays on the Qube® platform (Sophion Biosciences) were used to measure the inhibition of sodium flow through human NaV1.8 and NaV1.5 channels. Whole-cell voltage-clamp recordings were performed in QChips® (Sophion Biosciences) at room temperature. NaV1.8 current measurements on Qube® were obtained as follows: NaV1.8 currents were elicited with a 10 second 1 Hertz (Hz) pulse train from a holding potential of −90 millivolts (mV), delivered to the cells once per minute in the control condition (DMSO only) and after compound addition. The 1 hertz pulse train stimulation consisted of ten test pulses to 10 millivolt (mV) for 20 milliseconds (ms), each of which was followed by a 980 millisecond repolarization to −67 millivolts. At the end of the 10 second pulse train stimulation, a 5 second hyperpolarization step to −100 millivolt (mV) was used to recover NaV1.8 from fast inactivation. The peak currents elicited by the 1st and 10th test pulses were used to determine IC50 values for resting inhibition and inactivated state inhibition. NaV1.5 current measurements on Qube® were obtained as follows: NaV1.5 currents were elicited with a 20 second 3 Hertz pulse train in the control condition (DMSO only) and after compound addition. The pulse train consisted of sixty 20 millisecond test pulses to 0 millivolt from a holding potential of −80 millivolt (mV). The average peak currents elicited by the last 3 test pulses were used to determine IC50 values for NaV1.5 inhibition.
The following buffers were used for the Qube® recordings: External buffer for NaV1.8 Qube® recording: 150 NaCl, 2 CaCl2, 5 KCl, 1 MgCl2, 10 HEPES, 12 Dextrose; External buffer for Qube® NaV1.5 recording: 120 N-Methyl-D-Glucamine, 40 NaCl, 1 KCl, 2.7 CaCl2), 5 HEPES, 0.5 MgCl2; and Internal buffer for Qube® recording: 120 CsF, 30 CsCl, 10 EGTA, 5 HEPES, 5 NaF, 2 MgCl2.
For all Qube® experiments offline analysis was used to determine percent inhibition as a function of drug concentration. IC50 values were determined by fitting to the Hill equation.

Chain of human NaV 1.8 channels stably expressed in HEK 293 cells (Q9Y5Y9 whole entry): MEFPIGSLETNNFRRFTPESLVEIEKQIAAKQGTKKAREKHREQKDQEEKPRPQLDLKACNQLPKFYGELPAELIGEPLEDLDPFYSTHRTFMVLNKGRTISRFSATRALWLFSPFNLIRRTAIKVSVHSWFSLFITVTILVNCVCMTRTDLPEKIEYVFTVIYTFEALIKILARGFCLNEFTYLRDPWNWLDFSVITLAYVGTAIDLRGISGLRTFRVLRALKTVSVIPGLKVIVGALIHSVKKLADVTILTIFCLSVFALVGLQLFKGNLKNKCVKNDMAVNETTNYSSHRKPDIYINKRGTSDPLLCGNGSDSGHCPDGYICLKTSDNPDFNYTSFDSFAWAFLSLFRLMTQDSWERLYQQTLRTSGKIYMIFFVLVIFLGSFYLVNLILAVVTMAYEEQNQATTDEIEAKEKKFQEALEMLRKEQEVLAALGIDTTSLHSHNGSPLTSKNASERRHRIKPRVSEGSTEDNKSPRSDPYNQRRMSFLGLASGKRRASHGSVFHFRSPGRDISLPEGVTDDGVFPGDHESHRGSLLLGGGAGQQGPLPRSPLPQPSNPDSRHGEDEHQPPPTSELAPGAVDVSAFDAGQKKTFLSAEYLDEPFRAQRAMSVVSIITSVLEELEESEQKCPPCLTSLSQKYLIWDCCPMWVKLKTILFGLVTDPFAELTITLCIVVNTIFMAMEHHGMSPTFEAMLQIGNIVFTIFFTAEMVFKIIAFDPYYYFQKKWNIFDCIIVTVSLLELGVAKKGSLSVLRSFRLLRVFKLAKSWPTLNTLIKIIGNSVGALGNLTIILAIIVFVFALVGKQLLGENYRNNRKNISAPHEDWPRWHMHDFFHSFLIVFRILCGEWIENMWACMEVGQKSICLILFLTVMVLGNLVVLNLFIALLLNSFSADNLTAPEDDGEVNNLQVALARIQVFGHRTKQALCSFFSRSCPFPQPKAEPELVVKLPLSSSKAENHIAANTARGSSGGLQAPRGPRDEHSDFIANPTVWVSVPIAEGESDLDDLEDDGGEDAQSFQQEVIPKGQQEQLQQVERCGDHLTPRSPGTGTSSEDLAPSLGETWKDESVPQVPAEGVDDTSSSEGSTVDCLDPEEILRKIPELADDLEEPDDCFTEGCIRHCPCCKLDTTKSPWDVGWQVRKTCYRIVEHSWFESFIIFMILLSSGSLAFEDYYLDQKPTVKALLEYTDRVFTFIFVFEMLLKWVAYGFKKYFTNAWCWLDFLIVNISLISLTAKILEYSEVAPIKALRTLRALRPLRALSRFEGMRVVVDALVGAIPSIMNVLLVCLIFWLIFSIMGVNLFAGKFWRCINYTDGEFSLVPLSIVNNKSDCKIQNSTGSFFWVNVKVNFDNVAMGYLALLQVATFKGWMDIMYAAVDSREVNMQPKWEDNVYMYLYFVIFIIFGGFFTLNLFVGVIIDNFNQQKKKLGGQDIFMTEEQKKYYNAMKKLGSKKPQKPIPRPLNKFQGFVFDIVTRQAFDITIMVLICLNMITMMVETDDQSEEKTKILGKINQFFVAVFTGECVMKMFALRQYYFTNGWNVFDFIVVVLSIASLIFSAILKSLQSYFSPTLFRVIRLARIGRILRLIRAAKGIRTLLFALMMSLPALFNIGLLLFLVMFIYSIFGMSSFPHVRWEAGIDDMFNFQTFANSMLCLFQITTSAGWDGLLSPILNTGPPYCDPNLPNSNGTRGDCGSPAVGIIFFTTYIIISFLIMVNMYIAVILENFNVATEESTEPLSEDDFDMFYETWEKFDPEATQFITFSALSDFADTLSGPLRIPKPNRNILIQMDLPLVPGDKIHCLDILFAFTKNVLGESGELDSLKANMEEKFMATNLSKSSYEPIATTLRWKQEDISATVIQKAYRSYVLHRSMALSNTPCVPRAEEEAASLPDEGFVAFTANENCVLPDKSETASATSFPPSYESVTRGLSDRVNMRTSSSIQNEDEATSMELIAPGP

| SMILES | IC50 |
| --- | --- |
| C[C@@H]1C(=O)NCCN1C(=O)NC(c1ccc(OCC(F)(F)F)nc1)c1ccc(F)c(Cl)c1 (single isomer, unassigned) [Example 3B, (2R)-N-((S or R)-(3-chloro-4-fluorophenyl)(6-(2,2,2-trifluoro-ethoxy)pyridin-3-yl)methyl)-2-methyl-3-oxopiperazine-1-carboxamide] | 21.9 nM |
| O=C1CN(C(=O)NC(c2ccc(OCC(F)(F)F)nc2)c2ccc(F)c(Cl)c2)CCN1 (single isomer, unassigned) [Example 2B, N-((S or R)-(3-chloro-4-fluorophenyl)(6-(2,2,2-trifluoroethoxy)pyridin-3-yl)methyl)-3-oxopiperazine-1-carboxamide] | 123 nM |
| C[C@@H]1C(=O)NCCN1C(=O)NC(c1ccc(C2CC2)nc1)c1ccc(F)c(Cl)c1F (single isomer, unassigned) [Example 33B, (2R)-N-((S or R)-(3-chloro-2,4-difluoro-phenyl)(6-cyclo-propylpyridin-3-yl)methyl)-2-methyl-3-oxopiperazine-1-carboxamide] | 514 nM |
| C[C@@H]1C(=O)NCCN1C(=O)NC(c1ccc(Cl)cc1)c1cccc(C(F)(F)F)n1 (single isomer, unassigned) [Example 9B, (2R)-N-((S or R)-(4-chlorophenyl)(6-(trifluoromethyl)pyridin-2-yl)methyl)-2-methyl-3-oxopiperazine-1-carboxamide] | 8.03 nM |
| C[C@@H]1C(=O)NCCN1C(=O)NC(c1cnc(OCC(F)(F)F)s1)c1ccc(F)c(Cl)c1F (single isomer, unassigned) [Example 13B, (2R)-N-((S or R)-(3-chloro-2,4-difluoro-phenyl)(2-(2,2,2-trifluoroethoxy)thiazol-5-yl)methyl)-2-methyl-3-oxopiperazine-1-carboxamide] | 9.42 nM |
| C[C@@H]1C(=O)NCCN1C(=O)NC(c1ccc(OC2CC2)c(F)c1)c1cnc(C(F)(F)F)c(Cl)c1 (single isomer, unassigned) [Example 25B, (2R)-N-((S or R)-(5-chloro-6-(trifluoro-methyl)pyridin-3-yl)(4-cyclopropoxy-3-fluorophenyl)methyl)-2-methyl-3-oxopiperazine-1-carboxamide] | 15.8 nM |
| C[C@@H]1C(=O)NCCN1C(=O)NC(c1ccc(OC(F)F)nc1)c1ccc(F)c(Cl)c1F (single isomer, unassigned) [Example 31A, (2R)-N-((R or S)-(3-chloro-2,4-difluoro-phenyl)(6-(difluoro-methoxy)pyridin-3-yl)methyl)-2-methyl-3-oxopiperazine-1-carboxamide] | 3.47 nM |
| C[C@@H]1C(=O)NCCN1C(=O)NC(c1ccc(C(F)(F)F)nc1)c1ccc(F)c(Cl)c1 (single isomer, unassigned) [Example 16B, (2R)-N-((S or R)-(3-chloro-4-fluorophenyl)(6-(trifluoromethyl)pyridin-3-yl)methyl)-2-methyl-3-oxopiperazine-1-carboxamide] | 31.7 nM |
| C[C@@H]1C(=O)NCCN1C(=O)NC(c1ccc(OC(F)(F)F)cc1)c1cnc(C(F)(F)F)c(Cl)c1 (single isomer, unassigned) [Example 20A, (2R)-N-((R or S)-(5-chloro-6-(trifluoro-methyl)pyridin-3-yl)(4-(trifluoromethoxy)phenyl)methyl)-2-methyl-3-oxopiperazine-1-carboxamide] | 4.01 nM |
| C[C@@H]1C(=O)NCCN1C(=O)NC(c1cnc(OCC(F)(F)F)nc1)c1ccc(F)c(Cl)c1F (single isomer, unassigned) [Example 12B] | 501 nM |
| C[C@@H]1C(=O)NCCN1C(=O)NC(c1ccc(OCC(F)(F)F)nc1)c1ccc(F)c(Cl)c1 (single isomer, unassigned) [Example 3A, (2R)-N-((R or S)-(3-chloro-4-fluorophenyl)(6-(2,2,2-trifluoro-ethoxy)pyridin-3-yl)methyl)-2-methyl-3-oxopiperazine-1-carboxamide] | 2.22 nM |
| C[C@@H]1C(=O)NCCN1C(=O)NC(c1ccc(OCC(F)(F)F)nc1)c1cc(F)c(F)c(Cl)c1 (single isomer, unassigned) [Example 7B, (2R)-N-((S or R)-(3-chloro-4,5-difluoro-phenyl)(6-(2,2,2-tri-fluoroethoxy)pyridin-3-yl)methyl)-2-methyl-3-oxo-piperazine-1-carboxamide] | 19.6 nM |
| C[C@@H]1C(=O)NCCN1C(=O)NC(c1ccc(C(F)(F)F)nc1)c1ccc(Cl)c(Cl)c1 (single isomer, unassigned) [Example 18A, (2R)-N-((R or S)-(3,4-dichlorophenyl)(6-(trifluoromethyl)pyridin-3-yl)methyl)-2-methyl-3-oxopiperazine-1-carboxamide] | 3.89 nM |
| C[C@@H]1C(=O)NCCN1C(=O)NC(c1ccc(C(F)F)nc1)c1ccc(F)c(Cl)c1F (single isomer, unassigned) [Example 32A, (2R)-N-((R or S)-(3-chloro-2,4-difluoro-phenyl)(6-(difluoro-methyl)pyridin-3-yl)methyl)-2-methyl-3-oxopiperazine-1-carboxamide] | 96.8 nM |

Second part, the molecule after the results:

| IC50 | SMILES |
| --- | --- |
| 1.9 nM | O=C1CN(C(=O)NC(c2ccc(F)c(Cl)c2)c2ccc(Cl)c(C(F)(F)F)n2)CCN1 (single isomer, unassigned) [Example 80, N-((R or S)-(3-chloro-4-fluorophenyl)(5-chloro-6-(trifluoromethyl)pyridin-2-yl)methyl)-3-oxopiperazine-1-carboxamide] |
| 15.2 nM | CC(C)C1C(=O)NCCN1C(=O)NC(c1ccc(C(F)(F)F)nc1)c1ccc(F)c(Cl)c1F (single isomer, unassigned) [Example 39B, N-((R or S)-(3-chloro-2,4-difluorophenyl)(6-(trifluoromethyl)pyridin-3-yl)methyl)-(S or R)-2-isopropyl-3-oxo-piperazine-1-carboxamide] |
| 4.14 nM | O=C1CN(C(=O)NC(c2ccc(Cl)c(F)c2)c2ccc(F)c(C(F)(F)F)n2)CCN1 (single isomer, unassigned) [Example 54B, N-((S or R)-(4-chloro-3-fluorophenyl)(5-fluoro-6-(trifluoromethyl)pyridin-2-yl)methyl)-3-oxopiperazine-1-carboxamide] |
| 197 nM | C[C@@H]1C(=O)NCCN1C(=O)NC(c1cnc(C(F)(F)F)s1)c1ccc(F)c(Cl)c1F (single isomer, unassigned) [Example 62A] |
| 761 nM | C[C@@H]1C(=O)NCCN1C(=O)NC(c1ccc(Cl)cc1)c1ccnc(C(F)(F)F)n1 (single isomer, unassigned) [Example 68B] |
| 3.14 nM | C[C@@H]1C(=O)NCCN1C(=O)NC(c1cnc(C(F)(F)F)c(Cl)c1)c1ccc(Cl)c(C(F)(F)F)n1 (single isomer, unassigned) [Example 83B] |
| 8 nM | C[C@@H]1C(=O)NCCN1C(=O)NC(c1ccc(C(F)(F)F)nc1)c1ccc(Cl)c(C(F)(F)F)n1 (single isomer, unassigned) [Example 81A, (2R)-N-((R or S)-(5-chloro-6-(trifluoromethyl)pyridin-2-yl)(6-(trifluoro-methyl)pyridin-3-yl)methyl)-2-methyl-3-oxopiperazine-1-carboxamide] |
| 82.3 nM | C[C@@H]1C(=O)NCCN1C(=O)NC(c1ccc(F)c(Cl)c1)c1ccn(C(F)F)n1 (single isomer, unassigned) [Example 66B] |
| 13.2 nM | C[C@@H]1C(=O)NCCN1C(=O)NC(c1ccc(OC(F)(F)F)nc1)c1ccc(F)c(C(F)(F)F)n1 (single isomer, unassigned) [Example 51B, (2R)-N-((S or R)-(5-fluoro-6-(trifluoro-methyl)pyridin-2-yl)(6-(trifluoromethoxy)pyridin-3-yl)methyl)-2-methyl-3-oxopiperazine-1-carboxamide] |
| 2.95 nM | C[C@@H]1C(=O)NCCN1C(=O)NC(c1ccc(C(C)(F)F)nc1)c1ccc(F)c(Cl)c1F (single isomer, unassigned) [Example 75B] |
| 89.5 nM | C[C@@H]1C(=O)NCCN1C(=O)NC(c1ccc(C(C)(F)F)nc1)c1ccc(F)c(Cl)c1F (single isomer, unassigned) [Example 75A] |
| 8.29 nM | C[C@@H]1C(=O)NCCN1C(=O)NC(c1ccc(F)c(C(F)(F)F)n1)c1ccc(F)c(Cl)c1F (single isomer, unassigned) [Example 60B, (2R)-N-((S or R)-(3-chloro-2,4-difluoro-phenyl)(5-fluoro-6-(trifluoromethyl)pyridin-2-yl)methyl)-2-methyl-3-oxopiperazine-1-carboxamide] |
| 5.18 nM | C[C@@H]1C(=O)NCCN1C(=O)NC(c1ccc(C#N)cc1)c1ccc(Cl)c(C(F)(F)F)n1 (single isomer, unassigned) [Example 76A] |
